Assay results from ChEMBL document CHEMBL3627615, “Discovery of the disubstituted oxazole analogues as a novel class anti-tuberculotic agents against MDR- and XDR-MTB” (Bioorg Med Chem Lett, 2015).
In brackets after ≈: the same amount, converted by molar mass.

Legend:
[1] = system: Mycobacterium tuberculosis; test: Antimycobacterial activity against Mycobacterium tuberculosis H37Rv ATCC 27294 after 5 days by microplate alamar blue assay; assay type: functional; settings: H37Rv ATCC 27294, 120 h
HEK293 = test: Cytotoxicity against human HEK293 cells after 36 hrs by MTT assay; assay type: cell-based; settings: HEK293, 36 h
Pseudomonas aeruginosa = test: Antibacterial activity against Pseudomonas aeruginosa by agar dilution method; assay type: functional
Klebsiella pneumoniae = test: Antibacterial activity against Klebsiella pneumoniae by agar dilution method; assay type: functional
Staphylococcus aureus = test: Antibacterial activity against Staphylococcus aureus by agar dilution method; assay type: functional
Proteus vulgaris = test: Antibacterial activity against Proteus vulgaris by agar dilution method; assay type: functional
Serratia marcescens = test: Antibacterial activity against Serratia marcescens by agar dilution method; assay type: functional
Proteus mirabilis = test: Antibacterial activity against Proteus mirabilis by agar dilution method; assay type: functional
[2] = system: Acinetobacter calcoaceticus; test: Antibacterial activity against Acinetobacter calcoaceticus by agar dilution method; assay type: functional
Escherichia coli = test: Antibacterial activity against Escherichia coli by agar dilution method; assay type: functional

Compound: COc1ccc(C(=O)C2CCN(Cc3coc(-c4ccc(F)cc4)n3)CC2)cc1
- MIC90 [1]: 4 µg/mL (≈ 10.1 µM)
- IC50 (HEK293): > 150 µg/mL

Compound: O=C(c1ccc2c(c1)OCCO2)C1CCN(Cc2coc(-c3ccc(Br)cc3)n2)CC1
- MIC90 [1]: 8 µg/mL (≈ 16.6 µM)
- IC50 (HEK293): > 150 µg/mL

Compound: O=C(c1ccc2c(c1)OCCO2)C1CCN(Cc2csc(-c3ccc(Cl)cc3)n2)CC1
- MIC90 [1]: > 128 µg/mL

Compound: O=C(c1ccc2c(c1)OCCO2)C1CCN(Cc2coc(-c3ccccc3F)n2)CC1
- MIC90 [1]: 8 µg/mL (≈ 18.9 µM)
- IC50 (HEK293): > 150 µg/mL

Compound: CC[C@@H](CO)NCCN[C@@H](CC)CO [ETHAMBUTOL]
- MIC90 [1]: < 0.5 µg/mL

Compound: Cc1ccc(-c2nc(CN3CCC(C(=O)c4ccc5c(c4)OCCO5)CC3)co2)cc1
- MIC90 [1]: 64 µg/mL (≈ 153 µM)
- IC50 (HEK293): > 150 µg/mL

Compound: O=C(c1ccc2c(c1)OCCO2)C1CCN(Cc2coc(-c3ccc(F)cc3)n2)CC1
- MIC90 [1]: 8 µg/mL (≈ 18.9 µM)
- IC50 (HEK293): > 150 µg/mL

Compound: NNC(=O)c1ccncc1 [ISONIAZID]
- MIC90 [1]: < 0.5 µg/mL

Compound: CO[C@H]1/C=C/O[C@@]2(C)Oc3c(C)c(O)c4c(O)c(c(/C=N/N5CCN(C)CC5)c(O)c4c3C2=O)NC(=O)/C(C)=C\C=C\[C@H](C)[C@H](O)[C@@H](C)[C@@H](O)[C@@H](C)[C@H](OC(C)=O)[C@@H]1C [RIFAMPIN]
- MIC90 [1]: < 0.5 µg/mL

Compound: O=C(c1ccc2c(c1)OCCO2)C1CCN(Cc2coc(-c3ccoc3)n2)CC1
- MIC90 [1]: 32 µg/mL (≈ 81.1 µM)
- IC50 (HEK293): > 150 µg/mL

Compound: Cc1ccc(C(=O)C2CCN(Cc3coc(-c4ccc(F)cc4)n3)CC2)cc1
- MIC90 [1]: 4 µg/mL (≈ 10.6 µM)
- IC50 (HEK293): > 150 µg/mL

Compound: O=C(c1ccc2c(c1)OCCO2)C1CCN(Cc2cc(-c3ccc(F)cc3)on2)CC1
- MIC90 [1]: > 128 µg/mL

Compound: O=C(c1ccc2c(c1)CCCC2)C1CCN(Cc2coc(-c3ccc(F)cc3)n2)CC1
- MIC90 [1]: 1 µg/mL (≈ 2.39 µM)
- MIC80 (Pseudomonas aeruginosa): > 128 µg/mL
- MIC80 (Klebsiella pneumoniae): > 128 µg/mL
- MIC80 (Staphylococcus aureus): > 128 µg/mL
- MIC80 (Proteus vulgaris): > 128 µg/mL
- MIC80 (Serratia marcescens): > 128 µg/mL
- MIC80 (Proteus mirabilis): > 128 µg/mL
- IC50 (HEK293): > 150 µg/mL
- MIC80 [2]: > 128 µg/mL
- MIC80 (Escherichia coli): > 128 µg/mL

Compound: Cc1ccc(C(=O)C2CCN(Cc3coc(-c4ccc(F)cc4)n3)CC2)cc1C
- MIC90 [1]: 8 µg/mL (≈ 20.4 µM)
- IC50 (HEK293): > 150 µg/mL

Compound: CC(C)(C)c1ccc(-c2nc(CN3CCC(C(=O)c4ccc5c(c4)CCCC5)CC3)co2)cc1
- MIC90 [1]: 8 µg/mL (≈ 17.5 µM)
- IC50 (HEK293): > 150 µg/mL

Compound: CC(C)(C)c1ccc(-c2nc(CN3CCC(C(=O)c4ccc5c(c4)OCCO5)CC3)co2)cc1
- MIC90 [1]: 8 µg/mL (≈ 17.4 µM)
- MIC80 (Pseudomonas aeruginosa): > 128 µg/mL
- MIC80 (Klebsiella pneumoniae): > 128 µg/mL
- MIC80 (Staphylococcus aureus): > 128 µg/mL
- MIC80 (Proteus vulgaris): > 128 µg/mL
- MIC80 (Serratia marcescens): > 128 µg/mL
- MIC80 (Proteus mirabilis): > 128 µg/mL
- IC50 (HEK293): > 150 µg/mL
- MIC80 [2]: > 128 µg/mL
- MIC80 (Escherichia coli): > 128 µg/mL

Compound: O=C(c1ccc(F)c(F)c1)C1CCN(Cc2coc(-c3ccc(F)cc3)n2)CC1
- MIC90 [1]: 2 µg/mL (≈ 5 µM)
- IC50 (HEK293): > 150 µg/mL

Compound: O=C(c1ccc2c(c1)OCCO2)C1CCN(Cc2coc(-c3cccc(F)c3)n2)CC1
- MIC90 [1]: 4 µg/mL (≈ 9.47 µM)
- IC50 (HEK293): > 150 µg/mL

Compound: O=C(c1ccc2c(c1)OCCO2)C1CCN(Cc2coc(-c3cccnc3)n2)CC1
- MIC90 [1]: 32 µg/mL (≈ 78.9 µM)
- IC50 (HEK293): > 150 µg/mL

Compound: COc1ccc(-c2nc(CN3CCC(C(=O)c4ccc5c(c4)OCCO5)CC3)co2)cc1
- MIC90 [1]: 8 µg/mL (≈ 18.4 µM)
- IC50 (HEK293): > 150 µg/mL

Compound: O=C(c1ccc2c(c1)OCCO2)C1CCN(Cc2coc(-c3ccc(F)c(F)c3)n2)CC1
- MIC90 [1]: 8 µg/mL (≈ 18.2 µM)
- IC50 (HEK293): > 150 µg/mL

Compound: COc1ccc(C(=O)C2CCN(Cc3coc(-c4ccc(F)cc4)n3)CC2)cc1OC
- MIC90 [1]: 8 µg/mL (≈ 18.8 µM)
- IC50 (HEK293): > 150 µg/mL

Compound: O=C(c1ccccc1)C1CCN(Cc2coc(-c3ccc(F)cc3)n2)CC1
- MIC90 [1]: 2 µg/mL (≈ 5.49 µM)
- IC50 (HEK293): > 150 µg/mL

Compound: O=C(c1ccc2c(c1)OCCO2)C1CCN(Cc2coc(-c3ccccc3)n2)CC1
- MIC90 [1]: 4 µg/mL (≈ 9.89 µM)
- IC50 (HEK293): > 150 µg/mL

Compound: CN[C@@H]1[C@H](O[C@H]2[C@H](O[C@H]3[C@H](O)[C@@H](O)[C@H](N=C(N)N)[C@@H](O)[C@@H]3N=C(N)N)O[C@@H](C)[C@]2(O)C=O)O[C@@H](CO)[C@H](O)[C@H]1O [STREPTOMYCIN]
- MIC90 [1]: < 0.5 µg/mL

Compound: O=C(c1ccc2c(c1)OCCO2)C1CCN(Cc2coc(-c3ccco3)n2)CC1
- MIC90 [1]: 16 µg/mL (≈ 40.6 µM)
- IC50 (HEK293): > 150 µg/mL

Compound: CC(C)(C)c1ccc(-c2nc(CN3CCC(C(=O)c4ccc5c(c4)OCCO5)CC3)cs2)cc1
- MIC90 [1]: > 128 µg/mL

Compound: O=C(c1ccc2c(c1)OCCO2)C1CCN(Cc2coc(-c3ccc(Cl)cc3)n2)CC1
- MIC90 [1]: 2 µg/mL (≈ 4.56 µM)
- MIC80 (Pseudomonas aeruginosa): > 128 µg/mL
- MIC80 (Klebsiella pneumoniae): > 128 µg/mL
- MIC80 (Staphylococcus aureus): > 128 µg/mL
- MIC80 (Proteus vulgaris): > 128 µg/mL
- MIC80 (Serratia marcescens): > 128 µg/mL
- MIC80 (Proteus mirabilis): > 128 µg/mL
- IC50 (HEK293): > 150 µg/mL
- MIC80 [2]: > 128 µg/mL
- MIC80 (Escherichia coli): > 128 µg/mL

Compound: O=C(c1ccc2c(c1)OCCO2)C1CCN(Cc2coc(-c3ccc(C(F)(F)F)cc3)n2)CC1
- MIC90 [1]: 32 µg/mL (≈ 67.7 µM)
- IC50 (HEK293): > 150 µg/mL
